In ChEMBL document CHEMBL4823263, “Discovery of 2-(3-(3-Carbamoylpiperidin-1-yl)phenoxy)acetic Acid Derivatives as Novel Small-Molecule Inhibitors of the β-Catenin/B-Cell Lymphoma 9 Protein-Protein Interaction” (J Med Chem, 2021):

Columns and labels:
[1] = Downregulation of HPRT level in human SW480 cells at 30 uM incubated for […] by quantitative real-time PCR analysis relative to control; format: ADME, cell-based; details: sw480, 30 µM
[2] = test system: SW480; test: Antiproliferative activity against human SW480 cells incubated for 72 hrs by MTS assay; format: functional, cell-based; details: SW480, 72 h
[3] = test system: SW480; test: Inhibition of Wnt/beta-catenin transactivation signalling in human SW480 cells harboring mutant tcf4 binding sites assessed as relative activity at 12.5 uM incubated for 24 hrs by FOPFlash luciferase assay relative to control; format: cell-based; set-up: scale not given: the % may be the effect or the level left
[4] = Downregulation of HPRT in human MDA-MB-231 cells assessed as HPRT level at 3.3 uM incubated for […] by quantitative real-time PCR analysis relative to control; format: ADME, cell-based; details: mda-mb-231, 3.3 µM
[5] = test system: SW480; test: Inhibition of Wnt signalling in human SW480 cells assessed as reduction in Axin2 expression incubated for 24 hrs by Western blot analysis; format: cell-based
[6] = test system: SW480; test: Antiproliferative activity against human SW480 cells harboring beta-catenin pcDNA3.1 vector incubated for 72 hrs by MTS assay; format: functional, cell-based; details: SW480, 72 h

CC(C)(Oc1cccc(N2CCC[C@H](C(=O)N(Cc3ccc(-c4cccs4)cc3)C3CC3)C2)c1)C(=O)NS(=O)(=O)c1ccc(C#N)cc1
Activity [1]: 99% | IC50 [2]: 16.3 µM | Activity [3]: 102% | Activity [4]: 102% | Activity [5]: Dose-Dependent Effect | IC50 [6]: 86 µM
